US8487006B2, “Method of enhancing TGF-β signalling” (Auxagen, Inc., priority 2008, dated 2013)

How the values were obtained:
[1] = tested on: PAI-1 expression in Chinese hamster ovary cells (CHO cells); assay: TGF-β-stimulated expression of PAI-1 in CHO cells; assay type: cell-based; conditions: dynasore 50 μM; CHO cells (unpublished results)
Protocol: (§1) We hypothesize that TGF-β enhancers such as inhibitors of clathrin-dependent endocytosis may ameliorate atherosclerosis caused by cholesterol-induced suppression of TGF-β responsiveness in vascular cells^3,12. To test our hypothesis, we treated hypercholesterolemic ApoE-null mice with dynasore (1 mg/kg body weight) via intraperitoneal administration every two days for 8 weeks. We chose dynasore for two reasons. […] At 50 μM, it enhances TGF-β-stimulated expression of PAI-1 in these cell types by ˜4-5 fold, 2) Dynasore is the only inhibitor tested which alone is capable of stimulating PAI-1 expression. […] The plasma levels of cholesterol in wild-type mice treated with either vehicle only or dynasore were 120±10 and 125±20 mg/dl, respectively.

[2] = tested on: TβR-I and SARA at the plasma membrane in Mv1Lu cells; assay: Co-localization and accumulation of TβR-I and SARA, immunofluorescent microscopy; assay type: cell-based; conditions: 20 μM TFP, 10 mg/ml β-CD, 40 μM dynasore, 200 μM chloroquine, with 100 pM TGF-β1, 30 min
Protocol: Cells were pretreated with vehicle only or 20 μM TFP, 10 mg/ml β-CD, 40 μM dynasore (Dyn) and 200 μM chloroquine (CQ) at 37° C. for 1 h. Treated cells were then stimulated with and without 100 pM TGF-β1. After 30 min at 37° C., cells were fixed and analyzed by indirect immunofluorescent staining using antibody to TβR-I (panels 1-10) and SARA (panels 11-20), DAPI (nuclear) staining was also performed (panels 21-30). Merged staining is also shown (panels 31-40). Insets indicate the co-localization and accumulation of SARA and TβR-I at the plasma membrane.
TGF-β stimulates Smad2 phosphorylation by inducing association of TβR-I and SARA^6,7 (which serves as an anchor for Smad2), binding of Smad2 to SARA, and subsequent phosphorylation of Smad2 by TβR-I in the TβR-1-SARA-Smad2 complex. If clathrin-dependent endocytosis inhibitors enhance TGF-β-induced signaling (TGF-β-stimulated Smad2 phosphorylation) by increasing accumulation of TβR-I/TβR-II complexes at the coated pits, they should promote co-localization and accumulation of TβR-I and SARA at the plasma membrane. To test this, Mv1Lu cells were stimulated with 100 pM TGF-β1. After 30 min at 37° C., […] analyzed by immunofluorescent microscopy using antibodies to TβR-I and SARA. […] This is consistent with the previous report that TGF-β enhances TGF-β receptor internalization^16.

wild-type mice = assay: Wild-type mice treated with dynasore (organ pathology, coronary artery histology, TβR-II staining, plasma cholesterol); assay type: in vivo
Protocol: (§2) Wild-type and ApoE-null mice were treated with vehicle only (a, c) or 1 mg/kg dynasore (b, d) every two days for 8 weeks. The coronary arteries were removed from the animals and subjected to histological analysis by H & E staining (A) and indirect immunofluorescent staining for TβR-II(B). The asterisk (*) indicates the location of the lumen in coronary arteries. The arrow indicates the immunofluorescent staining of TβR-II in the aortic endothelium.
as §1
(§3) However, no TβR-II staining was found in the aortic endothelium and smooth muscle of coronary arteries in ApoE-null mice treated with vehicle only (FIG. 4Bc).

[3] = tested on: PAI-1 expression in bovine aortic endothelial cells (BAEC cells); assay: TGF-β-stimulated expression of PAI-1 in BAEC cells; assay type: cell-based; conditions: dynasore 50 μM; BAEC cells (unpublished results)
Protocol: as §1

[4] = tested on: hypercholesterolemic ApoE-null mice; assay: Atherosclerosis in hypercholesterolemic ApoE-null mice (coronary artery histology, TβR-II staining, plasma cholesterol); assay type: in vivo
Protocol: as §2, §1, §3

[5] = dynasore 1 mg/kg every two days for 8 weeks, indirect immunofluorescent staining

With `O=C(N/N=C/c1ccc(O)c(O)c1)c1cc2ccccc2cc1O` [dynasore] the “enhancement of TGF-β-stimulated expression of PAI-1” value [1] was 4-5 fold, the “co-localization and accumulation of TβR-I and SARA at the plasma membrane, co-treatment with TGF-β1” value [2] was “promoted co-localization and accumulation of TβR-I and SARA at the plasma membrane” and the “morphology of the coronary arteries” value (wild-type mice; dynasore 1 mg/kg every two days for 8 weeks, H & E staining) was “normal morphology”. For the same compound, the “macroscopic or microscopic abnormality in the liver, heart, lung and kidney” value (wild-type mice; dynasore 1 mg/kg intraperitoneal every 2 days for 8 weeks) was “no apparent macroscopic or microscopic abnormality has been detected”, the “enhancement of TGF-β-stimulated expression of PAI-1” value [3] was 4-5 fold and the “TβR-II staining in the aortic endothelium of coronary arteries” value [4, 5] was “appeared to restore the TβR-II staining”. For the same compound, the “TβR-II staining in the smooth muscle near the endothelium” value [4, 5] was “slight staining of TβR-II was found”, the effect on atherosclerosis ([4]; dynasore 1 mg/kg intraperitoneal every two days for 8 weeks) was “effectively ameliorates atherosclerosis” and the “macrophages or foam cells in the endothelium of the coronary arteries” value ([4]; dynasore 1 mg/kg intraperitoneal every two days for 8 weeks, H & E staining) was “very few macrophages or foam cells were found”.
